Experimental data as given in patent US12258425B2, “Peptide compositions and methods of use” (priority 2015, dated 2025).
Counter-ions that a name gives are not always drawn. Where a SMILES comes first, the peptide text is derived from it.

Tests used:
[1] = pH-solubility titration (visual: precipitate, turbidity, viscosity, gel); assay type: physicochemical
Protocol: Compound 1 obtained as a trihydrochloride salt, as described in Example 1, and was screened for aqueous solubility at different pHs, by carrying out pH titrations according to the following protocol. In some cases Met-12 was run through an identical experimental procedure to determine its solubility pH profile under the same conditions.
Compound 1 (10 mg) was dissolved in water (270-900 ? L) in a 2 mL clear plastic centrifuge tube with vortexing to give a pH ˜2.4 solution. […] This solution was then diluted with the appropriate amount of cosolvent or other excipient (sugar, surfactant etc.) to produce a clear acidic solution of 10 mg of Compound 1 in […] of the test solution at room temperature ([…]). Small aliquots of a basic solution (usually sodium hydroxide 1.0 M or 0.1 M, but sometimes other bases when investigating buffers) were added using a microliter syringe. Between additions the solution was mixed by vortexing, and the solution was inspected visually for precipitates of various types, turbidity, as a likely sign of microprecipitates, and viscosity to detect gel formation. pH measurements were taken at all these observation points. Some experiments titrated from the endogenous low pH to pH 10, but later titrations were not carried much above pH 7, or sometimes even lower.

[2] = system: FasL-induced caspase 8 activation in 661W cells; assay: Blockade of FasL-induced caspase 8 activation in 661W cells; assay type: cell-based; details: for Concentration of maximal inhibition of FasL-induced caspase 8 activation / EC50: FasL 500 ng/mL, 48 hours; for EC50: trihydrochloride, unbuffered solution in DMSO, read-out: EC50, inhibition of FasL-induced caspase 8 activation
Description: Cell Culture. The 661W photoreceptor cell line was generously provided by Muayyad Al-Ubaidi (Department of Cell Biology, University of Oklahoma Health Sciences Center, Oklahoma City, OK). The 661W cell line is a photoreceptor line that has been immortalized by the expression of SV40-T antigen under control of the human interphotoreceptor retinol-binding protein (IRBP) promoter (Al-Ubaidi et al.,J Cell Biol., 119(6):1681-1687 (1992), herein incorporated by reference in its entirety). 661W cells express cone photoreceptor markers, including blue and green cone pigments, transducin, and cone arrestin (Tan et al., Invest Ophtholmol Vis Sci., (3):764-768 (2004), herein incorporated by reference in its entirety), and can undergo caspase-mediated cell death (Kanan et al., Invest Ophthalmol Vis Sci., 48(1):40-51 (2007), herein incorporated by reference in its entirety).
The 661W cell line was maintained in Dulbecco's modified Eagle's medium containing 10% fetal bovine serum, 300 mg/L glutamine, 32 mg/L putrescine, 40 μL/L β-mercaptoethanol, 40 μg/L hydrocortisone 21-hemisuccinate, and 40 μg/L progesterone. The media also contained penicillin (90 U/mL) and streptomycin (0.09 mg/mL). Cells were grown at 37° C. in a humidified atmosphere of 5% CO2 and 95% air.
Activity Assays. Caspase 3, caspase 8 and caspase 9 activities were measured with colorimetric tetrapeptide cleavage assay kits, per the manufacturer's instructions (BioVision, Mountain View, Calif). Total (661W/retinal) protein was extracted as per a previously published protocol (Zacks et al., IOVS, 44(3):1262-1267 (2003), herein incorporated by reference in its entirety). One hundred micrograms of total (661W/retinal) protein was incubated with caspase 3 (DEVD-pNA), caspase 8 (IETD-pNA) or caspase 9 substrates (LEHD-pNA) at 200 μM final concentration for 60 minutes. Absorbance was measured at 405 nm in a microplate reader (Spectra-MAX 190, Molecular Devices, Sunnyvale, Calif). As a negative control, (661W/retinal) protein was incubated with assay buffer without the tetrapeptide. A second negative control was used in which assay buffer alone was incubated with the tetrapeptide. As a positive control, purified caspase 3, caspase 8, or caspase 9 was incubated with the tetrapeptide alone.
661W cells were treated with a FasL. […] Activity of caspase 8 measured in 661W cell lysates increased with increasing concentration of FasL, peaking with the 500 ng/ml dose. 661W cells were treated with 500 ng/ml FasL and measured activity levels at various time points.
The assay system described above was used as an in vitro screening system to find potential inhibitors of the Fas-induced Caspase 8 activation pathway. […] This activity is very dependent on the formulation in which the Met-12 peptide is delivered. The final formulation for Met-12 was diluted 1000-fold for this assay, and to get to the top of the dose curve, which is normally 100 μM, one uses lesser dilutions.

[3] = system: photoreceptor cells in the detached portion of the retina; assay: Rat retinal detachment model, TUNEL count of apoptotic cells; assay type: in vivo, rats; details: for Cells positive for TUNEL in detached retina: Example 10, subretinal, three days
Protocol: Briefly, rodents were anesthetized with a 50:50 mix of ketamine (100 mg/mL) and xylazine (20 mg/mL), and pupils were dilated with topical phenylephrine (2.5%) and tropicamide (1%). A 20-gauge microvitreoretinal blade (Walcott Scientific, Marmora, NJ) was used to create a sclerotomy 2 mm posterior to the limbus, carefully avoiding lens damage.
Under direct visualization through an operating microscope, a subretinal injector (Glaser, 32-gauge tip; BD Ophthalmic Systems, Sarasota, FL) was introduced through the sclerotomy into the vitreous cavity and then through a peripheral retinotomy into the subretinal space. Sodium hyaluronate (10 mg/mL) was slowly injected to detach the neurosensory retina from the underlying retinal pigment epithelium.
In all experiments, approximately one-third to one-half of the superonasal neurosensory retina was detached. In all animals, detachments were created in the same location to allow for direct comparison of retinal cell counts. Detachments were created in the left eye, leaving the right eye as the control. […]
After three days rats were euthanized, retinas were excised, fixed, sectioned, and stained for TUNEL assays. Areas of detached retina were counted for number of apoptotic cells. Each experiment involved 4 fields from each of 4 sections obtained from 5 or 6 retinas for each dosing group.

[4] = 5 μg in 5 μL DMSO, trihydrochloride

## CC[C@H](C)[C@H](NC(=O)[C@H](Cc1ccc(O)cc1)NC(=O)[C@H](CC(N)=O)NC(=O)[C@@H](NC(=O)[C@H](C)NC(=O)CNC(=O)[C@H](CC(C)C)NC(=O)[C@H](Cc1ccc(O)cc1)NC(=O)[C@@H](NC(=O)[C@H](Cc1c[nH]cn1)NC(=O)[C@@H](N)Cc1c[nH]cn1)[C@@H](C)CC)C(C)C)C(=O)N[C@@H](Cc1ccc(O)cc1)C(=O)O [Met-12, HHIYLGAVNYIY, reference compound] (H-HHIYLGAVNYIY-OH; N-terminus assumed)
[1]
  Aqueous solubility (in words): extremely poor aqueous solubility
[1]; 70% Propylene glycol
  pH of onset of gelling: 3.2 pH
[1]; aqueous solution titrated with sodium hydroxide
  pH to which a clear mobile solution persists: 3.0 pH
[2]; 10 mg/mL in 20 mM citrate buffer pH 2.8, in vitro and in vivo assays
  Loss in activity of a non-solution formulation: at least a fivefold loss in activity
[2]; Met-12 trihydrochloride at 10 μM, depending on the assay
  Caspase 8 activation remaining relative to baseline: 0-25%
[2]; aqueous based formulations
  Dose at which maximum inhibition is achieved: 50 to 100 µM
[2]; trihydrochloride in DMSO
  Concentration of maximal inhibition of FasL-induced caspase 8 activation: 10 µM
[2]
  EC50: 4000 nM
[3]; [4]
  Cells positive for TUNEL in detached retina: over 1%

## CC[C@H](C)[C@H](NC(=O)[C@H](Cc1ccc(O)cc1)NC(=O)[C@H](CC(N)=O)NC(=O)[C@@H](NC(=O)[C@H](C)NC(=O)CNC(=O)[C@H](CC(C)C)NC(=O)[C@H](Cc1ccc(O)cc1)NC(=O)[C@@H](NC(=O)[C@H](Cc1cnc[nH]1)NC(=O)[C@@H](N)Cc1cnc[nH]1)[C@@H](C)CC)C(C)C)C(=O)N[C@@H](Cc1ccc(O)cc1)C(N)=O [Compound 1 triacetate, His-His-Ile-Tyr-Leu-Gly-Ala-Val-Asn-Tyr-Ile-Tyr-NHz] (H-HHIYLGAVNYIY-NH2)
[1]; 2 mg/mL in water
  Inherent pH of the salt: 3.4-3.6 pH
[3]; Example 12, 1 μg in DMSO
  Apoptotic cells in detached retina: 1.2%

## CC[C@H](C)[C@H](NC(=O)[C@H](Cc1ccc(O)cc1)NC(=O)[C@H](CC(N)=O)NC(=O)[C@@H](NC(=O)[C@H](C)NC(=O)CNC(=O)[C@H](CC(C)C)NC(=O)[C@H](Cc1ccc(O)cc1)NC(=O)[C@@H](NC(=O)[C@H](Cc1cnc[nH]1)NC(=O)[C@@H](N)Cc1cnc[nH]1)[C@@H](C)CC)C(C)C)C(=O)N[C@@H](Cc1ccc(O)cc1)C(N)=O [Compound 1 trihydrochloride, His-His-Ile-Tyr-Leu-Gly-Ala-Val-Asn-Tyr-Ile-Tyr-NHz] (H-HHIYLGAVNYIY-NH2)
[2]; 10 mg/mL in 1% PS-20, 3% PG, pH 4
  Most potent concentration (FIG. 3): 3 µM
[2]; 10 mg/mL in 2% Polysorbate 20 and 2% PG at pH 4
  Dose potency and efficacy versus Met-12 or Compound 1 in DMSO (FIG. 2): both considerably more dose potent, but also more efficacious
[2]; 10 mg/mL in 3% PS-20, 3% PG, pH 4, top dose 30
  Course of activity with concentration (FIG. 3): continued increase in activity
[2]; 661W cells, both in DMSO
  Potency relative to Met-12 by 1C50: 10 fold
  Potency relative to Met-12 by concentration of maximal inhibition: approximately 3 fold
[2]; DMSO (20 mg/mL)
  Dose potency versus Met-12 (FIG. 2): somewhat more dose potent than Met-12
[2]; trihydrochloride in DMSO, U-shaped curve
  Activity above 30 μM: almost inactive
[2]; trihydrochloride in DMSO
  Concentration of maximal inhibition of FasL-induced caspase 8 activation: 3 µM
[2]
  EC50: 400 nM
[3]; 0.5 μg in DMSO
  Cells positive for TUNEL in detached retina: 0.58%
[3]; 1 μg in DMSO
  Cells positive for TUNEL in detached retina: 1.14%
[3]; [4]
  Cells positive for TUNEL in detached retina: 0.82%
[3]; 10 μg in DMSO
  Cells positive for TUNEL in detached retina: 0.9%
[3]; Example 11, 1 μg in 2% propylene glycol, 2% poloxamer 407, pH 4
  Apoptotic cells in detached retina: 0.4%
[3]; Example 11, 1 μg in 3% propylene glycol, 3% PS-20, pH 4.0
  Apoptotic cells in detached retina: 0.01%
[3]; Example 11, 5 μg in 2% propylene glycol, 2% poloxamer 407, pH 4
  Apoptotic cells in detached retina: 0.3%
[3]; Example 11, 5 μg in 3% propylene glycol, 3% PS-20, pH 4.0
  Apoptotic cells in detached retina: 2.9%
[3]; Example 11, 5 μg in DMSO
  Apoptotic cells in detached retina: 2.5%
[3]; Example 12, 1 μg in DMSO
  Apoptotic cells in detached retina: 2.4%
